Consider 1 substance from US4550186A, “Binuclear copper (II) carboxylates formed from amine-carboxyboranes” (Duke University, priority 1983, dated 1985).

One data set has as its system CF1 male mice. Description: Acute toxicity (LD50). Format: in vivo, mouse. The following applies: CF1 mice intraperitoneally, single dose, 7 days. The method, then:
The acute toxicity (LD50 values) was determined in CF1 male mice by administering test drugs intraperitoneally from 5-50 mg/kg as a single dose. The number of deaths recorded over 7 days in the group was determined for each dosage.

In a further data set the test system is Acetyl CoA synthetase. Description: In vivo liver enzyme study: acetyl CoA synthetase. Also noted: species or system mouse. The following applies: CF1 liver after 16 days i.p. The method, then:
In vitro enzymatic studies were determined using 10% homogenates of CF1 male mouse liver with 50-200 μM of test drugs. In vivo enzymatic studies were determined using 10% homogenates of liver from CF1 male mice obtained after administering the agents for 16 days at a dose ranging from 2.5-20 mg/kg/day intraperitoneally. The liver homogenates for both in vitro and in vivo studies were prepared in 0.25M sucrose and 0.001M (ethylenedinitrilo)tetraacetic acid. Acetyl coenzyme A synthetase and adenosine triphosphate dependent citrate lyase activities were determined spectrophotometrically at 540 nm as the hydroxylamate of acetyl coenzyme A formed after 30 min at 37° C. Mitochondrial citrate exchange was determined by the procedure of Robinson et al [Eur. J. Biochem., 216, 63 (1970)] using ^14 C-sodium bicarbonate (41 mCi/mmol) incorporated into mitochondrial ^14 C-citrate after isolating rat mitochondria (9000 g×10 min) from the homogenates. The exchanges of the ^14 C-citrate were determined after incubating the mitochondrial fraction which was loaded with labeled citrate and test drugs for 10 min. Then the radioactivity was measured in the mitochondrial and supernantant fractions in scintillation fluid and expressed as a percentage. Cholesterol side chain oxidation was determined by the method of Kritchevsky and Tepper [Artherosclerosis, 18, 93 (1973)] using (26-^14 C) cholesterol (50 mCi/mmol) and mitochondria isolated from rat liver homogenates. […] Fatty acid synthetase activity was determined by the method of Brady et al [J. Biol. Chem., 235, 3093 (1960)] using [2-^14 C] malonyl-coenzyme A (37.5 mCi/mmol) which was incorporated into newly synthesized fatty acids that were extracted with ether and counted. Acyl transferase activity was determined with glycerol-3phosphate [L-2-^3 H(N)] […] HCl and counted. Phosphatidate phosphohydrolase activity was measured as the inorganic phosphate released after 30 min from phosphatidic acid by the method of Mavis et al [J. Lipid Res., 19, 467 (1978)]. […]

Another data set in a line: Organ weights. The note with it: for Organ Weight: 14 days 10 mg/Kg/Day, Treated. In kind it is in vivo, rat. The source says:
Periodic animal weights were obtained during the experiments and expressed as a percentage of the animal's weight on day 0. After dosing for 14 days with test drugs, selected organs were excised, trimmed of fat and weighed. The organ weights were expressed as a percentage of the total body weight of the animal.

“{Cu[(CH3)3 N.BH2 CO2 ]2.(CH3)3 N.BH2 COOH} [Compound I]” gave an LD50 in the data set with CF1 male mice of 39.2 mg/kg. The figures for the “Acetyl CoA synthetase” value in the data set on Acetyl CoA synthetase (2.5 mg/kg), with Acetyl CoA synthetase (5.0 mg/kg) and with Acetyl CoA synthetase (10 mg/kg) were 62 ± 6% of control, 77 ± 7% of control and 73 ± 7% of control, respectively. The Adrenal weights result in “Organ weights” (after drug administration) was “not altered”. Besides, the “Organ Weight” value in “Organ weights” (rat Adrenal) turned out to be 0.031 gm; in “Organ weights” (rat Brain) it was 1.666 gm; in the data set “Organ weights” (rat Chyme) it was 5.9333 gm; in the data set “Organ weights” (rat Feces), 8.633 gm; in “Organ weights” (rat Heart), 1.021 gm; in “Organ weights” (rat Kidney), 2.167 gm. Further, the “Organ Weight” value in “Organ weights” (rat Large Intestine) is 4.233 gm; in “Organ weights” (rat Liver), 10.600 gm; in “Organ weights” (rat Lung) it was 1.933 gm; in the data set “Organ weights” (rat Small Intestine), 6.433 gm; in the data set “Organ weights” (rat Spleen), 0.501 gm; in “Organ weights” (rat Stomach) it was 1.766 gm.
